{"source": "patent US7247641B2", "about": "“Compounds, derivatives, compositions, preparation and uses” (MGI GP, Inc., priority 2001, dated 2007)", "key": {"[1]": {"system": "ischemia and reperfusion of the heart in rabbits", "conditions": "cited from earlier work"}, "[2]": {"system": "focal cerebral ischemia in male Long-Evans rats", "experiment": "Focal cerebral ischemia: right distal MCA cauterization with temporary bilateral CCA occlusion", "type": "in vivo, rat", "conditions": "24 h, mean±SD", "description": "Focal cerebral ischemia is produced by cauterization of the right distal MCA (middle cerebral artery) with bilateral temporary common carotid artery occlusion in male Long-Evans rats for 90 minutes. All procedures performed on the animals are approved by the University Institutional Animal Care and Use Committee of the University of Pennsylvania. A total of 42 rats (weights: 230-340 g) obtained from Charles River were used in this study. The animals fasted overnight with free access to water prior to the surgical procedure.\nTwo hours prior to MCA occlusion, varying amounts (control, n=14; 5 mg/kg, n=7; 10 mg/kg, n=7; 20 mg/kg, n=7; and 40 mg/kg, n=7) of the compound, 3,4-dihydro-5-[4-(1-piperidinyl)-butoxy]-1(2H)-isoquinolinone (“DPQ”) were dissolved in dimethyl sulfoxide (DMSO) using a sonicator. A volume of 1.28 ml/kg of the resulting solution was injected intraperitoneally into […].\nThe rats were then anesthetized with halothane (4% for induction and 0.8%-1.2% for the surgical procedure) in a mixture of 70% nitrous oxide and 30% oxygen. The body temperature was monitored by a rectal probe and maintained at 37.5±0.5° C. with a heating blanket regulated by a homeothermiic blanket control unit (Harvard Apparatus Limited, Kent, U.K.). A catheter (PE-50) was placed into the tail artery, and arterial pressure was continuously monitored and recorded on a Grass polygraph recorder (Model 7D, Grass Instruments, Quincy, Mass.). Samples for blood gas analysis (arterial pH, PaO2 and PaCO2) were also taken from the tail artery catheter and measured with a blood gas analyzer (ABL 30, Radiometer, Copenhagen, Denmark). Arterial blood samples were obtained 30 minutes after MCA occlusion.\nThe head of the animal was positioned in a stereotaxic frame, and a right parietal incision between the right lateral canthus and the external auditory meatus was made. Using a dental drill constantly cooled with saline, a 3 mm burr hole was prepared over the cortex supplied by the right MCA, 4 mm lateral to the sagittal suture and 5 mm caudal to the coronal suture. The dura mater and a thin inner bone layer were kept, care being taken to position the probe over a tissue area devoid of large blood vessels. The flow probe (tip diameter of 1 mm, fiber separation of 0.25 mm) was lowered to the bottom of the cranial burr hole using a micromanipulator. The probe was held stationary by a probe holder secured to the skull with dental cement. The microvascular blood flow in the right parietal cortex was continuously monitored with a laser Doppler flowmeter (FloLab, Moor, Devon, U.K., and Periflux 4001, Perimed, Stockholm, Sweden). […]"}, "PARP": {"system": "PARP", "conditions": "read-out: IC50 for inhibiting PARP; reported by Suto et al.; cited from earlier work"}, "[3]": {"system": "MSU crystal induced neutrophil migration in Swiss albino mice", "experiment": "MSU crystal-induced neutrophil recruitment (peritonitis gout model)", "type": "in vivo, mouse", "conditions": "6 h", "description": "Male outbread Swiss albino mice (20-22 g body weight) were purchased from Banton and Kingsman (T. O. strain; Hull, Humberside) and maintained on a standard chow pellet diet with tap water ad libitum and a 12:00 h light/dark cycle. All animals were housed for 1 week prior to experimentation to allow body weight to reach 28-30 g.\n1,11b-dihydrobenzopyrano[4,3,2-de ]isoquinolin-1-one was dissolved in 100% DMSO at room temperature at a concentration of 45 mg in 2 ml. The compound was then injected into the peritoneal cavity, so as each mouse received a single dose corresponding to 45 mg/2 ml/kg (e.g. 60 μl for a mouse of 30 g). Control mice received DMSO at 2 ml/kg i.p. A third group of mice which were left untreated were added to control for potential effects of the vehicle. […]\nMSU crystal-induced neutrophil recruitment was tested as follows. […] Peritonitis was induced by injection of 3 mg MSU crystals in 0.5 ml PBS (0.1 M, pH 7.4), and the recruitment of neutrophils into the cavity evaluated at the 6 h time point (Getting et al., 1997, J. Pharmacol. Exp. Ther. 283: 123-130). […]\nAn aliquot (100 μl) of the lavage fluid was then diluted 1:10 in Turk's solution (0.01% crystal violet in 3% acetic acid). The samples were then vortexed and 10 μl of the stained cell solution were placed in a Neubauer haematocymometer and neutrophils numbers counted using a light microscope (Olympus B061). […]"}}, "data": [{"compound": "Oc1cccc2c(O)nccc12", "note": "[1,5-dihydroxyisoquinoline]", "values": [{"measurement": "reduction in infarct size", "setting": "[1]; single injection 1 mg/kg", "value": "38-48%"}]}, {"compound": "NC(=O)c1cccc(N)c1", "note": "[3-amino-benzamide]", "values": [{"measurement": "reduction in infarct size in the heart", "setting": "[1]; single injection 10 mg/kg, one minute before occlusion or before reperfusion", "value": "32-42%"}]}, {"compound": "O=C1NCCc2c(OCCCCN3CCCCC3)cccc21", "note": "[DPQ, 3,4-dihydro-5-[4-(1-piperidinyl)-butoxy]-1(2H)-isoquinolinone]", "values": [{"measurement": "damaged volume (infarct volume)", "setting": "[2]; 5 mg/kg i.p. 2 h before and 2 h after MCA occlusion, control 165.2±34.0", "value": "106.7±23.2", "unit": "mm^3"}, {"measurement": "damaged volume (infarct volume)", "setting": "[2]; 10 mg/kg i.p. 2 h before and 2 h after MCA occlusion, control 165.2±34.0", "value": "76.4±16.8", "unit": "mm^3"}, {"measurement": "damaged volume (infarct volume)", "setting": "[2]; 20 mg/kg i.p. 2 h before and 2 h after MCA occlusion, control 165.2±34.0", "value": "110.2±42.0", "unit": "mm^3"}, {"measurement": "damaged volume (infarct volume)", "setting": "[2]; 40 mg/kg i.p., no significant difference from control 165.2±34.0", "value": "135.6±44.8", "unit": "mm^3"}, {"measurement": "IC50", "setting": "PARP", "value": 40, "unit": "nM"}]}, {"compound": "O=C1N=Cc2cccc3c2C1c1ccccc1O3", "note": "(stereo not drawn) [1,11b-dihydrobenzopyrano[4,3,2-de]isoquinolin-1-one]", "values": [{"measurement": "Neutrophils, mean ± S.E.", "setting": "[3]; 45 mg/kg i.p. 1 h prior to 3 mg MSU crystals, n=8, vehicle group 6.30 ± 0.33", "value": "2.85 ± 0.34 (8)* 10^6 per mouse"}, {"measurement": "inhibition of cell influx vs. the vehicle group", "setting": "[3]; 45 mg/kg i.p.", "value": 55, "unit": "%"}]}]}
